Measured values taken from ChEMBL document CHEMBL1127749 (J Med Chem, 1994).

Columns and labels:
[1] = target: Muscarinic acetylcholine receptor M2 (Mus musculus) (UniProt Q9ERZ4); assay: In vivo determination of peripheral M2 receptor mediated tremor, cholinergic side effect
[2] = target: Muscarinic acetylcholine receptor M2 (Mus musculus) (UniProt Q9ERZ4); assay: Compound was tested against peripheral M2 receptor mediated cholinergic side effect hypothermia; Very flat dose-response curve with about 50% of maximum response at 350 umol/kg
[3] = target: Muscarinic acetylcholine receptor M2 (Mus musculus) (UniProt Q9ERZ4); assay: In vivo determination of peripheral M2 receptor mediated salivation, cholinergic side effect
[4] = target: Muscarinic acetylcholine receptor M2 (Mus musculus) (UniProt Q9ERZ4); assay: In vivo determination of peripheral M2 receptor mediated hypothermia, cholinergic side effect

| Compound | ED50 [1] | ED50 [2] | ED50 [3] | ED50 [4] |
| --- | --- | --- | --- | --- |
| CCn1ncc(C2=CCCN(C)C2)n1 | 180 µmol/kg | 350 µmol/kg | 400 µmol/kg |  |
| CCN1C(=O)CC2(CCN(C)CC2)C1=O | 38 µmol/kg |  | 2.5 µmol/kg | 8.6 µmol/kg |
| CCn1nnc(C2=CCCNC2)n1 | > 150 µmol/kg |  | 41 µmol/kg | 78 µmol/kg |
| CCCCn1ncc(C2=CCCN(C)C2)n1 | 72 µmol/kg |  | > 160 µmol/kg | 60 µmol/kg |
| CN1CCC=C(c2cnn(C)n2)C1 | > 110 µmol/kg |  | 3.6 µmol/kg | 5.3 µmol/kg |
| C[N+](C)(C)CCOC(N)=O |  |  | 120 µmol/kg | 90 µmol/kg |
| CCn1ncc(C2=CCCNC2)n1 | 60 µmol/kg |  | 12 µmol/kg | 19 µmol/kg |
